Read-outs that look alike come from different tables or passages of the source.
How the values were obtained:
[1] = system: Salmonella typhi ATCC19430; experiment: Antimicrobial MIC, agar dilution; type: cell-based; conditions: Salmonella enterica, read-out: Minimum inhibitory concentration (MIC)
[2] = system: Pseudomonas aeruginosa ATCC27853; experiment: Antimicrobial MIC, agar dilution
[3] = system: lipopolysaccharide-stimulated peritoneal macrophages; experiment: Production of nitric oxide by lipopolysaccharide-stimulated peritoneal macrophages (Greiss reagent); type: cell-based; parameters: Potency (%): % inhibition of nitric oxide production relative to lipopolysaccharide-stimulated macrophages: concentration or dose not given beside the values; conditions: LPS-stimulated peritoneal macrophages; for Nitric oxide (nitrite) concentration, μM (average ± SD): 24 h, nitrite by Greiss reagent
Method in brief: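 Macrophages in nitrite-free medium with 0.1% BSA were stimulated with LPS at 0.5–10 ng/ml, some wells also receiving epinephrine, norepinephrine or dopamine at […], for 24 h at 37° C. Nitrite in supernatants was measured with Greiss reagent, 15 min at room temperature, absorbance 532 nm.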

[4] = system: Candida albicans (local isolate); experiment: Antimicrobial MIC, agar dilution; conditions: Candida albicans, read-out: Minimum inhibitory concentration (MIC)
[5] = system: PHA-stimulated splenocytes; experiment: Proliferative response of PHA-stimulated splenocytes (MTT assay); type: cell-based; conditions: PHA 5 μg/ml, 72 hr; compounds at 5 μM (method says 10 μM); ratio of O.D. versus vehicle control
Method in brief: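 Freshly prepared splenocytes (1×10^6 cells/well) were cultured for 72 h at 37° C with compound at 10 μM final, with or without PHA (5 μg/ml). Viability was read by MTT (4 h), with absorbance at 570 nm against 690 nm reference. Stimulation index is the OD ratio of treated versus vehicle cultures.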

[6] = system: MCF7 (breast) carcinoma cell line; experiment: Anti-tumor properties, MTT; type: cell-based; conditions: Homo sapiens; for IC50: MCF7, read-out: IC50 (μM) MCF7 (breast)
Method in brief: (§1)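 Cells seeded at 10×10^3 per well for 24 h, then exposed to compound in serum-free medium (final up to 100 μM, 0.5% DMSO vehicle) for 72 h in triplicate. Viability by MTT reduction (4 h, SDS solubilised), absorbance 595 nm/ref 620 nm; IC50 from survival curves.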

[7] = system: HCT116 (colon) carcinoma cell line; experiment: Anti-tumor properties, MTT; type: cell-based; conditions: Homo sapiens, HCT-116; for IC50: read-out: IC50 (μM) HCT116 (colon)
Method in brief: as §1

[8] = system: HepG2 (hepatocellular) carcinoma cell line; experiment: Anti-tumor properties, MTT; type: cell-based; conditions: Homo sapiens; for IC50: HepG2, read-out: IC50 (μM) HepG2 (liver)
Method in brief: as §1

[9] = system: Streptococcus pyogenes ATCC19615; experiment: Antimicrobial MIC, agar dilution
[10] = system: PC3 (prostate) carcinoma cell line; experiment: Anti-tumor properties, MTT; type: cell-based; conditions: Homo sapiens
[11] = system: A-549 (lung) carcinoma cell line; experiment: Anti-tumor properties, MTT; type: cell-based; conditions: Homo sapiens, A549
[12] = system: Staphylococcus aureus ATCC25923; experiment: Antimicrobial MIC, agar dilution
gastric mucosa = experiment: Ulcerogenic liability (ulcer index); type: in vivo, albino mice; conditions: orally, three successive days, 10 mg/kg indomethacin mol equivalent; for Number of animals with ulcer: 6 animals per group; for Ulcer index: sum of the three values
Experimental: The ulcerogenic liability was investigated in albino mice using the standard method. […] The animals were fasted 18 h before drug administration. […] The control group animals were given saline solution only with few drops of Tween 80. […] The gastric mucosa was examined with a magnifying lens (10×) for the presence of lesions and erosions.
1. percentage incidence of ulcer divided by 10;
2. average number of ulcers per stomach; and
3. average severity of ulcers;

MCF-7 cells = experiment: Effect on doxorubicin induced cytotoxicity (MTT)
Method in brief: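 MCF-7 cells were exposed for 48 hr to 100 μM curcumin derivative alone or combined with 10 μM doxorubicin. Controls got medium, DMSO vehicle, or vehicle+doxorubicin. Percent viable cells was read by MTT assay.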

[13] = ATCC27853, 18 h, read-out: Minimum inhibitory concentration (MIC)
[14] = ATCC27853, read-out: Minimum inhibitory concentration (MIC)
[15] = ATCC19615, 18 h, read-out: Minimum inhibitory concentration (MIC)
[16] = ATCC19615, read-out: Minimum inhibitory concentration (MIC)
[17] = ATCC25923, 18 h, read-out: Minimum inhibitory concentration (MIC)
[18] = ATCC25923, read-out: Minimum inhibitory concentration (MIC)

| SMILES | MIC ([1]; 18 h) [µg/mL] | MIC [1] [µM] | MIC [2, 13] [µg/mL] | MIC [2, 14] [µM] | Potency (%): % inhibition of nitric oxide production relative to lipopolysaccharide-stimulated macrophages [3] [%] | Nitric oxide (nitrite) concentration, μM (average ± SD) [3] [µM] | MIC ([4]; 18 h) [µg/mL] | MIC [4] [µM] | Stimulation Index (average ± SD) [5] | IC50 [6] [µM] | IC50 [7] [µM] | IC50 [8] [µM] | MIC [9, 15] [µg/mL] | MIC [9, 16] [µM] | IC50 [10] [µM] | IC50 [11] [µM] | MIC [12, 17] [µg/mL] | MIC [12, 18] [µM] | other results |
| --- | --- | --- | --- | --- | --- | --- | --- | --- | --- | --- | --- | --- | --- | --- | --- | --- | --- | --- | --- |
| COc1cc(/C=C/C(=O)CC(=O)/C=C/c2ccc(OC(=O)C(C)NC(=O)OC(C)(C)C)c(OC)c2)ccc1OC(=O)C(C)NC(=O)OC(C)(C)C (racemic) [Boc-DL-Ala-Cur, ((1E,6E)-3,5-dioxohepta-1,6-diene-1,7-diyl)bis(2-methoxy-4,1-phenylene) bis(2-((tert-butoxycarbonyl)amino)propanoate)] | 0.25 | 0.352 | 0.25 | 0.352 | 30.88 | 18.88 ± 0.46 | 0.5 | 0.703 | 1.78 ± 0.07 | 34.8 | > 100 | > 100 | 0.125 | 0.176 | > 100 | 73.9 | 0.25 | 0.352 |  |
| COc1cc(/C=C/C(=O)CC(=O)/C=C/c2ccc(OC(=O)C(C)N)c(OC)c2)ccc1OC(=O)C(C)N.Cl.Cl (racemic) [HCl-DL-Ala-Cur, 1,1′-((((1E,6E)-3,5-dioxohepta-1,6-diene-1,7-diyl)bis(2-methoxy-4,1-phenylene))bis(oxy))bis(1-oxopropan-2-aminium) chloride] | 0.25 | 0.428 | 0.5 | 0.857 | 27.69 | 19.75 ± 0.97 | 1 | 1.71 | 1.91 ± 0.15 | 9.79 | 66.9 | 36.8 | 0.25 | 0.428 | 21.7 | 22.2 | 0.125 | 0.214 |  |
| COc1cc(/C=C/C(=O)CC(=O)/C=C/c2ccc(OC(=O)[C@@H](C)NC(=O)OC(C)(C)C)c(OC)c2)ccc1OC(=O)[C@@H](C)NC(=O)OC(C)(C)C [Boc-D-Ala-Cur, ((1E,6E)-3,5-dioxohepta-1,6-diene-1,7-diyl)bis(2-methoxy-4,1-phenylene) (2R,2′R)-bis(2-((tert-butoxycarbonyl)amino)propanoate)] | 0.25 | 0.352 | 0.25 | 0.352 | 23.82 | 20.81 ± 0.82 | 0.5 | 0.703 | 2.07 ± 0.12 | 29.2 | > 100 | > 100 | 1 | 1.41 | > 100 | 85.4 | 0.125 | 0.176 |  |
| COc1cc(/C=C/C(=O)CC(=O)/C=C/c2ccc(OC(=O)[C@@H](CCSC)NC(=O)OC(C)(C)C)c(OC)c2)ccc1OC(=O)[C@@H](CCSC)NC(=O)OC(C)(C)C [Boc-D-Met-Cur, ((1E,6E)-3,5-dioxohepta-1,6-diene-1,7-diyl)bis(2-methoxy-4,1-phenylene) (2R,2′R)-bis(2-((tert-butoxycarbonyl)amino)-4-(methylthio)butanoate)] | 1 | 1.2 | 0.25 | 0.301 |  |  | 0.5 | 0.602 | 2.53 ± 0.08 | 22.3 | > 100 | > 100 | 0.125 | 0.15 | > 100 | > 100 | 0.25 | 0.301 | % Incidence of ulcer divided by 10 (gastric mucosa): 0; Average of ulcer number (gastric mucosa): 0; Average severity of ulcer (gastric mucosa): 0; Number of animals with ulcer (gastric mucosa): 0/6; Ulcer index (gastric mucosa): 0 |
| COc1cc(/C=C/C(=O)CC(=O)/C=C/c2ccc(OC(=O)[C@H](Cc3ccccc3)NC(=O)OC(C)(C)C)c(OC)c2)ccc1OC(=O)[C@H](Cc1ccccc1)NC(=O)OC(C)(C)C [Boc-L-Phe-Cur, ((1E,6E)-3,5-dioxohepta-1,6-diene-1,7-diyl)bis(2-methoxy-4,1-phenylene) (2S,2′S)-bis(2-((tert-butoxycarbonyl)amino)-3-phenylpropanoate)] | 0.25 | 0.29 | 1 | 1.16 |  |  | 1 | 1.16 | 2.56 ± 0.14 | > 100 | > 100 | > 100 | 0.125 | 0.145 | > 100 | > 100 | 0.25 | 0.29 |  |
| COc1cc(/C=C/C(=O)CC(=O)/C=C/c2ccc(OC(=O)[C@H](CCSC)NC(=O)OCC3c4ccccc4-c4ccccc43)c(OC)c2)ccc1OC(=O)[C@H](CCSC)NC(=O)OCC1c2ccccc2-c2ccccc21 [Fmoc-Met-Cur, ((1E,6E)-3,5-dioxohepta-1,6-diene-1,7-diyl)bis(2-methoxy-4,1-phenylene) (2S,2′S)-bis(2-((((9H-fluoren-9-yl)methoxy)carbonyl)amino)-4-(methylthio)butanoate)] | 2 | 1.86 | 2 | 1.86 | 47.91 | 14.23 ± 1.05 | 0.5 | 0.465 | 1.07 ± 0.16 |  |  |  | 0.125 | 0.116 |  |  | 0.25 | 0.233 | Percentage of viable cells MCF-7 (average ± SD) (MCF-7 cells; 10 μM DOX in combination with 100 μM curcumin derivative, 48 hr): 38.75 ± 1.65; viability at 100 µM (MCF-7 cells; Homo sapiens, MCF7, 48 h, read-out: Percentage of viable cells MCF-7 (average ± SD)): 99.3 ± 3.16%; activity at 100 µM ([6]; MCF7, 100 μM, 72 h, read-out: Percentage growth of tumor cell lines treated with the tested compounds (±SD)): 88.9 ± 5%; activity at 100 µM ([7]; HCT116, 100 μM, 72 h, read-out: Percentage growth of tumor cell lines treated with the tested compounds (±SD)): 96.4 ± 1.4%; activity at 100 µM ([8]; HepG2, 100 μM, 72 h, read-out: Percentage growth of tumor cell lines treated with the tested compounds (±SD)): 92.4 ± 5.1%; % Incidence of ulcer divided by 10 (gastric mucosa): 0; Average of ulcer number (gastric mucosa): 0; Average severity of ulcer (gastric mucosa): 0; Number of animals with ulcer (gastric mucosa): 0/6; Ulcer index (gastric mucosa): 0 |
| COc1cc(/C=C/C(=O)CC(=O)/C=C/c2ccc(OC(=O)[C@H](CCC(N)=O)NC(=O)OCc3ccccc3)c(OC)c2)ccc1OC(=O)[C@H](CCC(N)=O)NC(=O)OCc1ccccc1 [Z-L-Gln-Cur, ((1E,6E)-3,5-dioxohepta-1,6-diene-1,7-diyl)bis(2-methoxy-4,1-phenylene) (2S,2′S)-bis(5-amino-2-(((benzyloxy)carbonyl)amino)-5-oxopentanoate)] | 0.5 | 0.56 | 1 | 1.12 |  |  | 0.5 | 0.56 | 2.37 ± 0.16 | 10.2 | > 100 | > 100 | 0.125 | 0.14 | 90.7 | 46.1 | 0.5 | 0.56 |  |

Source: patent US10660967B2, “Curcumin conjugates and methods of use thereof” (priority 2016, dated 2020)
